Results as given in ChEMBL document CHEMBL4020788, “Synthesis, SAR and molecular docking studies of benzo[d]thiazole-hydrazones as potential antibacterial and antifungal agents” (2017).
Activity calls are given as the source filed them. The rule behind the calls is not given here.

Assays:
Type in all cases: functional
Staphylococcus aureus [1] = test: Antibacterial activity against methicillin resistant Staphylococcus aureus MRSA090 at 100 ug/ml after 24 hrs by agar well diffusion method; details: for zone of inhibition at 100 µg/mL: MRSA090, 24 h, read-out: DIZ
Fusarium oxysporum [2] = test: Antifungal activity against Fusarium oxysporum at 50 ug/ml after 48 hrs by agar well diffusion method
Aspergillus niger [3] = test: Antifungal activity against Aspergillus niger at 75 ug/ml after 48 hrs by agar well diffusion method
Staphylococcus aureus [4] = test: Antibacterial activity against Staphylococcus aureus at 100 ug/ml after 24 hrs by agar well diffusion method
Aspergillus niger [5] = test: Antifungal activity against Aspergillus niger at 100 ug/ml after 48 hrs by agar well diffusion method
Aspergillus niger [6] = test: Antifungal activity against Aspergillus niger at 25 ug/ml after 48 hrs by agar well diffusion method
Bacillus subtilis [7] = test: Antibacterial activity against Bacillus subtilis at 75 ug/ml after 24 hrs by agar well diffusion method
Fusarium verticillioides [8] = test: Antifungal activity against Fusarium moniliforme at 25 ug/ml after 48 hrs by agar well diffusion method
Fusarium oxysporum [9] = test: Antifungal activity against Fusarium oxysporum at 100 ug/ml after 48 hrs by agar well diffusion method; details: read-out: DIZ
Fusarium verticillioides [10] = test: Antifungal activity against Fusarium moniliforme at 75 ug/ml after 48 hrs by agar well diffusion method; details: for zone of inhibition at 75 µg/mL: read-out: DIZ
Staphylococcus aureus [11] = test: Antibacterial activity against methicillin resistant Staphylococcus aureus MRSA090 at 50 ug/ml after 24 hrs by agar well diffusion method; details: for zone of inhibition at 50 µg/mL: MRSA090, 24 h, read-out: DIZ
Staphylococcus aureus [12] = test: Antibacterial activity against Staphylococcus aureus at 75 ug/ml after 24 hrs by agar well diffusion method
Bacillus subtilis [13] = test: Antibacterial activity against Bacillus subtilis at 100 ug/ml after 24 hrs by agar well diffusion method
Staphylococcus aureus [14] = test: Antibacterial activity against Staphylococcus aureus at 50 ug/ml after 24 hrs by agar well diffusion method
Escherichia coli [15] = test: Antibacterial activity against Escherichia coli at 100 ug/ml after 24 hrs by agar well diffusion method; details: for zone of inhibition at 100 µg/mL: read-out: DIZ
Bacillus subtilis [16] = test: Antibacterial activity against Bacillus subtilis at 50 ug/ml after 24 hrs by agar well diffusion method
Aspergillus niger [17] = test: Antifungal activity against Aspergillus niger at 50 ug/ml after 48 hrs by agar well diffusion method
Escherichia coli [18] = test: Antibacterial activity against Escherichia coli at 50 ug/ml after 24 hrs by agar well diffusion method; details: for zone of inhibition at 50 µg/mL: read-out: DIZ
Fusarium oxysporum [19] = test: Antifungal activity against Fusarium oxysporum at 75 ug/ml after 48 hrs by agar well diffusion method; details: read-out: DIZ
Fusarium oxysporum [20] = test: Antifungal activity against Fusarium oxysporum at 25 ug/ml after 48 hrs by agar well diffusion method
Escherichia coli [21] = test: Antibacterial activity against Escherichia coli at 75 ug/ml after 24 hrs by agar well diffusion method; details: for zone of inhibition at 75 µg/mL: read-out: DIZ
Klebsiella pneumoniae [22] = test: Antibacterial activity against Klebsiella pneumoniae at 75 ug/ml after 24 hrs by agar well diffusion method; details: read-out: DIZ
Escherichia coli [23] = test: Antibacterial activity against Escherichia coli at 25 ug/ml after 24 hrs by agar well diffusion method; details: for zone of inhibition at 25 µg/mL: read-out: DIZ
Staphylococcus aureus [24] = test: Antibacterial activity against methicillin resistant Staphylococcus aureus MRSA090 at 75 ug/ml after 24 hrs by agar well diffusion method; details: for zone of inhibition at 75 µg/mL: MRSA090, 24 h, read-out: DIZ
Fusarium verticillioides [25] = test: Antifungal activity against Fusarium moniliforme at 100 ug/ml after 48 hrs by agar well diffusion method; details: for zone of inhibition at 100 µg/mL: read-out: DIZ
Klebsiella pneumoniae [26] = test: Antibacterial activity against Klebsiella pneumoniae at 50 ug/ml after 24 hrs by agar well diffusion method; details: read-out: DIZ
Klebsiella pneumoniae [27] = test: Antibacterial activity against Klebsiella pneumoniae at 100 ug/ml after 24 hrs by agar well diffusion method; details: read-out: DIZ
Bacillus subtilis [28] = test: Antibacterial activity against Bacillus subtilis at 25 ug/ml after 24 hrs by agar well diffusion method
Staphylococcus aureus [29] = test: Antibacterial activity against Staphylococcus aureus at 25 ug/ml after 24 hrs by agar well diffusion method
Klebsiella pneumoniae [30] = test: Antibacterial activity against Klebsiella pneumoniae at 25 ug/ml after 24 hrs by agar well diffusion method; details: read-out: DIZ
Fusarium verticillioides [31] = test: Antifungal activity against Fusarium moniliforme at 50 ug/ml after 48 hrs by agar well diffusion method
Staphylococcus aureus [32] = test: Antibacterial activity against methicillin resistant Staphylococcus aureus MRSA090 at 25 ug/ml after 24 hrs by agar well diffusion method; details: for zone of inhibition at 25 µg/mL: MRSA090, 24 h, read-out: DIZ

COc1cc(/C=N/Nc2nc3cccc(C)c3s2)ccc1O
zone of inhibition at 100 µg/mL (Staphylococcus aureus [1]): 24 mm | diameter of the inhibition zone (DIZ) (Fusarium oxysporum [2]): inactive | diameter of the inhibition zone (DIZ) (Aspergillus niger [3]): inactive | zone of inhibition at 100 µg/mL (Staphylococcus aureus [4]; read-out: DIZ): 26 mm | diameter of the inhibition zone (DIZ) (Aspergillus niger [5]): inactive | diameter of the inhibition zone (DIZ) (Aspergillus niger [6]): inactive | zone of inhibition at 75 µg/mL (Bacillus subtilis [7]; read-out: DIZ): 23 mm | diameter of the inhibition zone (DIZ) (Fusarium verticillioides [8]): inactive | zone of inhibition at 100 µg/mL (Fusarium oxysporum [9]): 12 mm | diameter of the inhibition zone (DIZ) (Fusarium verticillioides [10]): inactive | zone of inhibition at 50 µg/mL (Staphylococcus aureus [11]): 16 mm | zone of inhibition at 75 µg/mL (Staphylococcus aureus [12]; read-out: DIZ): 22 mm | zone of inhibition at 100 µg/mL (Bacillus subtilis [13]; read-out: DIZ): 28 mm | zone of inhibition at 50 µg/mL (Staphylococcus aureus [14]; read-out: DIZ): 17 mm | zone of inhibition at 100 µg/mL (Escherichia coli [15]): 27 mm | zone of inhibition at 50 µg/mL (Bacillus subtilis [16]; read-out: DIZ): 19 mm | diameter of the inhibition zone (DIZ) (Aspergillus niger [17]): inactive | zone of inhibition at 50 µg/mL (Escherichia coli [18]): 15 mm | zone of inhibition at 75 µg/mL (Fusarium oxysporum [19]): 8 mm | diameter of the inhibition zone (DIZ) (Fusarium oxysporum [20]): inactive | zone of inhibition at 75 µg/mL (Escherichia coli [21]): 21 mm | zone of inhibition at 75 µg/mL (Klebsiella pneumoniae [22]): 14 mm | zone of inhibition at 25 µg/mL (Escherichia coli [23]): 10 mm | zone of inhibition at 75 µg/mL (Staphylococcus aureus [24]): 19 mm | diameter of the inhibition zone (DIZ) (Fusarium verticillioides [25]): inactive | zone of inhibition at 50 µg/mL (Klebsiella pneumoniae [26]): 10 mm | zone of inhibition at 100 µg/mL (Klebsiella pneumoniae [27]): 16 mm | zone of inhibition at 25 µg/mL (Bacillus subtilis [28]; read-out: DIZ): 15 mm | zone of inhibition at 25 µg/mL (Staphylococcus aureus [29]; read-out: DIZ): 13 mm | zone of inhibition at 25 µg/mL (Klebsiella pneumoniae [30]): 4 mm | diameter of the inhibition zone (DIZ) (Fusarium verticillioides [31]): inactive | zone of inhibition at 25 µg/mL (Staphylococcus aureus [32]): 12 mm

Cc1cccc2nc(N/N=C/c3ccc(Oc4ccccc4)cc3)sc12
diameter of the inhibition zone (DIZ) (Staphylococcus aureus [1]): inactive | diameter of the inhibition zone (DIZ) (Fusarium oxysporum [2]): inactive | diameter of the inhibition zone (DIZ) (Aspergillus niger [3]): inactive | diameter of the inhibition zone (DIZ) (Staphylococcus aureus [4]): inactive | diameter of the inhibition zone (DIZ) (Aspergillus niger [5]): inactive | diameter of the inhibition zone (DIZ) (Aspergillus niger [6]): inactive | diameter of the inhibition zone (DIZ) (Bacillus subtilis [7]): inactive | diameter of the inhibition zone (DIZ) (Fusarium verticillioides [8]): inactive | zone of inhibition at 100 µg/mL (Fusarium oxysporum [9]): 15 mm | zone of inhibition at 75 µg/mL (Fusarium verticillioides [10]): 8 mm | diameter of the inhibition zone (DIZ) (Staphylococcus aureus [11]): inactive | diameter of the inhibition zone (DIZ) (Staphylococcus aureus [12]): inactive | diameter of the inhibition zone (DIZ) (Bacillus subtilis [13]): inactive | diameter of the inhibition zone (DIZ) (Staphylococcus aureus [14]): inactive | diameter of the inhibition zone (DIZ) (Escherichia coli [15]): inactive | diameter of the inhibition zone (DIZ) (Bacillus subtilis [16]): inactive | diameter of the inhibition zone (DIZ) (Aspergillus niger [17]): inactive | diameter of the inhibition zone (DIZ) (Escherichia coli [18]): inactive | zone of inhibition at 75 µg/mL (Fusarium oxysporum [19]): 10 mm | diameter of the inhibition zone (DIZ) (Fusarium oxysporum [20]): inactive | diameter of the inhibition zone (DIZ) (Escherichia coli [21]): inactive | zone of inhibition at 75 µg/mL (Klebsiella pneumoniae [22]): 11 mm | diameter of the inhibition zone (DIZ) (Escherichia coli [23]): inactive | diameter of the inhibition zone (DIZ) (Staphylococcus aureus [24]): inactive | zone of inhibition at 100 µg/mL (Fusarium verticillioides [25]): 14 mm | zone of inhibition at 50 µg/mL (Klebsiella pneumoniae [26]): 18 mm | zone of inhibition at 100 µg/mL (Klebsiella pneumoniae [27]): 15 mm | diameter of the inhibition zone (DIZ) (Bacillus subtilis [28]): inactive | diameter of the inhibition zone (DIZ) (Staphylococcus aureus [29]): inactive | zone of inhibition at 25 µg/mL (Klebsiella pneumoniae [30]): 4 mm | diameter of the inhibition zone (DIZ) (Fusarium verticillioides [31]): inactive | diameter of the inhibition zone (DIZ) (Staphylococcus aureus [32]): inactive

Cc1cccc2nc(N/N=C/c3ccco3)sc12
zone of inhibition at 100 µg/mL (Staphylococcus aureus [1]): 16 mm | zone of inhibition at 50 µg/mL (Fusarium oxysporum [2]; read-out: DIZ): 10 mm | zone of inhibition at 75 µg/mL (Aspergillus niger [3]; read-out: DIZ): 17 mm | diameter of the inhibition zone (DIZ) (Staphylococcus aureus [4]): inactive | zone of inhibition at 100 µg/mL (Aspergillus niger [5]; read-out: DIZ): 22 mm | zone of inhibition at 25 µg/mL (Aspergillus niger [6]; read-out: DIZ): 10 mm | diameter of the inhibition zone (DIZ) (Bacillus subtilis [7]): inactive | zone of inhibition at 25 µg/mL (Fusarium verticillioides [8]; read-out: DIZ): 10 mm | zone of inhibition at 100 µg/mL (Fusarium oxysporum [9]): 18 mm | zone of inhibition at 75 µg/mL (Fusarium verticillioides [10]): 18 mm | zone of inhibition at 50 µg/mL (Staphylococcus aureus [11]): 9 mm | diameter of the inhibition zone (DIZ) (Staphylococcus aureus [12]): inactive | diameter of the inhibition zone (DIZ) (Bacillus subtilis [13]): inactive | diameter of the inhibition zone (DIZ) (Staphylococcus aureus [14]): inactive | zone of inhibition at 100 µg/mL (Escherichia coli [15]): 17 mm | diameter of the inhibition zone (DIZ) (Bacillus subtilis [16]): inactive | zone of inhibition at 50 µg/mL (Aspergillus niger [17]; read-out: DIZ): 13 mm | zone of inhibition at 50 µg/mL (Escherichia coli [18]): 9 mm | zone of inhibition at 75 µg/mL (Fusarium oxysporum [19]): 14 mm | zone of inhibition at 25 µg/mL (Fusarium oxysporum [20]; read-out: DIZ): 4 mm | zone of inhibition at 75 µg/mL (Escherichia coli [21]): 13 mm | zone of inhibition at 75 µg/mL (Klebsiella pneumoniae [22]): 21 mm | zone of inhibition at 25 µg/mL (Escherichia coli [23]): 4 mm | zone of inhibition at 75 µg/mL (Staphylococcus aureus [24]): 13 mm | zone of inhibition at 100 µg/mL (Fusarium verticillioides [25]): 21 mm | zone of inhibition at 50 µg/mL (Klebsiella pneumoniae [26]): 16 mm | zone of inhibition at 100 µg/mL (Klebsiella pneumoniae [27]): 24 mm | diameter of the inhibition zone (DIZ) (Bacillus subtilis [28]): inactive | diameter of the inhibition zone (DIZ) (Staphylococcus aureus [29]): inactive | zone of inhibition at 25 µg/mL (Klebsiella pneumoniae [30]): 11 mm | zone of inhibition at 50 µg/mL (Fusarium verticillioides [31]; read-out: DIZ): 13 mm | zone of inhibition at 25 µg/mL (Staphylococcus aureus [32]): 5 mm
